Experimental findings from patent publication US8314079B2, “Hyaluronic acid oligosaccharide fractions and drugs containing the same” (Seikagaku Corporation, priority 2000, dated 2012) are described below.

The test system of this experiment is SD male rats. Description: Carbon tetrachloride hepatopathy model. The class given is in vivo, rat. Here is the method:
A test substance was dissolved in physiological saline to obtain a test solution for administration. The concentration was determined depending on the dose mentioned below so that the volume of the solution to be administered should become 5 mL/kg.
Moreover, as a positive control solution, FAD (flavine adenine dinucleotide, Wakamoto Pharmaceutical), of which effect on the carbon tetrachloride hepatopathy model had been reported (Yakubutsu Ryouhou (Pharmacotherapy), vol. 9, Special edition, pp. 46-53), was used at a dose of 10 mg/kg. Further, physiological saline was used as a negative control solution.
SD male rats of 5-week old were divided into a “negative control solution” administered group (n=8), “HA4 2 mg/kg” administered group (n=8), “HA4 10 mg/kg” administered group (n=8), “HA4 50 mg/kg” administered group (n=8), “positive control solution” administered group (n=8) and “normal” group (n=8).
The rats of the groups were starved from 16:00 of the day before the first administration day, orally administered with 100 mg/kg of carbon tetrachloride (CCl4) before 8:00 of the next day and then intraperitoneally administered with each of the aforementioned solutions at 8:00. Thereafter, the rats were bred with maintaining starvation, and administered with each of the aforementioned solutions in the same manner as the first administration at 16:00 and 24:00. The rats were fed after the administration at 24:00 and dissected at 8:00 on the next day.
After the dissection, blood was collected, and GOT activity and leucocyte count were measured. The GOT activity was measured by using a clinical chemistry autoanalyzer (COBAS MIRA S, Nippon Roche), and the leucocyte count was measured by using an automated hematology analyzer (Sysmex K-2000, produced by Sysmex).
IL-10 in peripheral blood was measured by using IL-10 Rat ELISA (produced by ENDOGEN). IL-8 was measured by using Panatest A Series Rat CINC-1 (IL-8) (Panapharm Laboratories). The symbol of ** in FIGS. 51 and 52 indicates presence of significant difference with p<0.01 (Williams multiple range test).

The mark [1] stands for this setting: HA4 2, 10, 50 mg/kg intraperitoneal, dose dependence.

`CC(=O)N[C@H]1[C@H](O[C@H]2[C@H](O)[C@@H](O)[C@H](O[C@H]3[C@H](O)[C@@H](CO)OC(O)[C@@H]3NC(C)=O)O[C@@H]2C(=O)O)O[C@H](CO)[C@@H](O)[C@@H]1O[C@@H]1O[C@H](C(=O)O)[C@@H](O)[C@H](O)[C@H]1O.[Na].[Na]` (stereo partly drawn) [HA4, sodium β-D-glucopyranosyluronate-(1→3)-2-acetamido-2-deoxy-β-D-glucopyranosyl-(1→4)-(sodium β-D-glucopyranosyluronate)-(1→3)-2-acetamido-2-deoxy-D-glucopyranose]: the GOT activity entry (HA4 50 mg/kg administered group, intraperitoneal, compared with negative control solution group, p<0.05) was “significant reduction”. The “blood IL-10 level” value (HA4 50 mg/kg, compared with negative control solution group, p<0.01) is on record as “significantly higher” and the “blood IL-10 level” value under setting [1] is recorded as “increased in a manner dependent on the dose of HA4”. Moreover, the “blood IL-8 level” value under setting [1] is “decreased in a manner dependent on the dose of HA4”. The peripheral leucocyte count result is, setting by setting: (HA4 groups compared with FAD 10 mg/kg (positive control)) “decreased compared even with FAD”; (all HA4 groups (2, 10, 50 mg/kg intraperitoneal), compared with negative control solution group) “significant decrease”.
